Each block holds one compound with its values, some of them ahead of it. The source made the active and inactive calls.
Columns and labels:
[1] = fluconazole-exposed Candida albicans growth modulators – fluorescence, retest, confirmation (AID 2467); format: functional, cell-based
[2] = NIH-3T3 fibroblast cytotoxicity, dose response, cytotoxicity control, cell-based, fluorescence, Alamar Blue, secondary assay (AID 2327); format: functional;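 also: NIH-3T3 mouse fibroblasts cultured with fluconazole at 8 µg/mL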
[3] = target: T1, Short transient receptor potential channel 4 (Mus musculus, UniProt Q9QUQ5); assay: calcium entry via TRPC4 opening agents – cell-based, HEK293 TRPC4/mu-opioid, Fluo-4 calcium, dose response (AID 434937); format: functional
T1 sequence (Q9QUQ5 whole entry): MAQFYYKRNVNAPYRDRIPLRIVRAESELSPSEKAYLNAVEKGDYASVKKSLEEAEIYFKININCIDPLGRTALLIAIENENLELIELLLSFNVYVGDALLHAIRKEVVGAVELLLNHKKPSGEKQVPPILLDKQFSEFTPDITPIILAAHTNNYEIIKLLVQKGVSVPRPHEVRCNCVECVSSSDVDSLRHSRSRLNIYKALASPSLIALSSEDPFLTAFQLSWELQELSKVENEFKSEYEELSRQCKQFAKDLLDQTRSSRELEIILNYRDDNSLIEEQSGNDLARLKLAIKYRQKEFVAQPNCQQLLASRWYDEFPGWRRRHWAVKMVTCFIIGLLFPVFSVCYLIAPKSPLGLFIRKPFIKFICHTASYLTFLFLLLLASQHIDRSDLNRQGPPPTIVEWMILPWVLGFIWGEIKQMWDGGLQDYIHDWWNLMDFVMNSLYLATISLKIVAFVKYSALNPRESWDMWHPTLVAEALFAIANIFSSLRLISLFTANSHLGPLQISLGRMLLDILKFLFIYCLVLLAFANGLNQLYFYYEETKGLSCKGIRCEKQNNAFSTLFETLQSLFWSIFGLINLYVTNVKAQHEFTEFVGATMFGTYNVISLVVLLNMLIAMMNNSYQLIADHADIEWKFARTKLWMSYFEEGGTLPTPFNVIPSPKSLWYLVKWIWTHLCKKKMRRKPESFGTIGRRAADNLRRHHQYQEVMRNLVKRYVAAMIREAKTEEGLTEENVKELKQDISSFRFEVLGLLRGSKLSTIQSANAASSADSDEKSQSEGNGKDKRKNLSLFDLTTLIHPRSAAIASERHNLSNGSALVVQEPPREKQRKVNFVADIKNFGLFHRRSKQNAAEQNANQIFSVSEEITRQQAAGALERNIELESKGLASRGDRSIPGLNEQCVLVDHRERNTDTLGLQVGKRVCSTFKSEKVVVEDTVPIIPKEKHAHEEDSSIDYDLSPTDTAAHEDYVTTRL

[4] = target: T1, Short transient receptor potential channel 4; assay: block of DAMGO-driven TRPC4 calcium entry – cell-based, HEK293 TRPC4/mu-opioid, Fluo-4 calcium, dose response (AID 434942); format: functional;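 also: potency of inhibitors blocking the TRPC4 calcium response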
Mu-type opioid receptor = Mu-type opioid receptor (Homo sapiens, UniProt P35372); assay: HTS Image-Based Screen for Agonists of the MOR Receptor. [Related pubchem assays (depositor defined):AID1777, AID1785, AID1786, AID2133]; format: functional;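 also: imaging of beta-arrestin GFP recruitment into spots after receptor activation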
[5] = Trypanosoma cruzi growth suppression in host cells – NIH3T3 host cells, beta-gal luminescence, confirmation (AID 2044); format: functional, cell-based;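 also: intracellular parasites grown in NIH/3T3 mouse fibroblasts as host cells; luminescent beta-galactosidase reporter signal from transgenic T. cruzi replicating inside host cells; inhibitors lower the luminescence signal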
Beta-galactosidase [6] = target: T2, Beta-galactosidase (Escherichia coli, UniProt Q8VNN2); assay: PubChem AID 485352; format: functional
[7] = target: T3, Kappa-type opioid receptor (Homo sapiens, UniProt P41145); format: functional
[8] = NIH3T3 cell viability loss – ATP luminescence, mouse fibroblasts, counter-screen, dose response (AID 2010); format: functional, cell-based;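 also: cells exposed to compound for about 90 hours before reading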
Beta-galactosidase [9] = target: T2, Beta-galactosidase; format: functional
[10] = target: T4, Delta-type opioid receptor (Homo sapiens, UniProt P41143); assay: HTS Image-Based Screen for Agonists of the DOR Receptor. [Related pubchem assays (depositor defined):AID1777, AID1786, AID2133]; format: functional
[11] = target: T4, Delta-type opioid receptor; assay: HTS Image-Based Screen for Antagonists of the DOR Receptor. [Related pubchem assays (depositor defined):AID1777, AID1785, AID1786, AID2133]; format: functional
[12] = target: T3, Kappa-type opioid receptor; format: functional; remark: listed apart in the source
[13] = target: T5, Type-1 angiotensin II receptor (Homo sapiens, UniProt P30556); assay: antagonism of angiotensin II type 1 receptor – cell-based, uHTS hits, selectivity assay for APJ receptor antagonist project, dose response (AID 463214); format: functional;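 also: antagonist potency against angiotensin II stimulated AT1 response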
T5 sequence (P30556 whole entry): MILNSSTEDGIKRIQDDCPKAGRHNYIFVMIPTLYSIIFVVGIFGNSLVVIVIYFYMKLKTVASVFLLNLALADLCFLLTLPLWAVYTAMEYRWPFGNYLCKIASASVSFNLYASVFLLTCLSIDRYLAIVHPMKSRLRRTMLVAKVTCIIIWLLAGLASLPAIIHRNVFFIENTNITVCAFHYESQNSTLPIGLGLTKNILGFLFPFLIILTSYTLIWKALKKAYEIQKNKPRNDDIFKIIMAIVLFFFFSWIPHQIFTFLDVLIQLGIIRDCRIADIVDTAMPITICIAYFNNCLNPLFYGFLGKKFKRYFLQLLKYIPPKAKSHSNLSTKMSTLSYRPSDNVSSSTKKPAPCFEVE

[14] = target: T6, E3 ubiquitin-protein ligase XIAP (Homo sapiens, UniProt P98170); assay: Counter Screen using XIAP-Bir3 for Chemical Antagonists of Bir1/2 domains of IAP-family anti-apoptotic proteins. [Related pubchem assays (depositor defined):AID1018, AID1449, AID1514, AID1638, AID1749, AID1750, AID488957, AID488963]
[15] = target: T7, Calpain-2 catalytic subunit (Sus scrofa, UniProt P43367); assay: m-calpain protease blockers, concentration series – biochemical, fluorogenic peptide substrate, dose response (AID 1420); format: functional
T7 sequence (P43367 whole entry): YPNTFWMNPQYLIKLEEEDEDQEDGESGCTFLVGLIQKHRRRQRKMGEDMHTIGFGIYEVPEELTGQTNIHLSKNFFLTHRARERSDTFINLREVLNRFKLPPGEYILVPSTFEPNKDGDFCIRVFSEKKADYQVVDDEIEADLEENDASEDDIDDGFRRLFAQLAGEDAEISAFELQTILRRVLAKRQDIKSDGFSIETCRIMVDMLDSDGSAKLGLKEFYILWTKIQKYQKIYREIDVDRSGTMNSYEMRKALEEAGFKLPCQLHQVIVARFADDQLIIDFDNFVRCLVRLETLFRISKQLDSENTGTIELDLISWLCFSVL

[16] = target: T6, E3 ubiquitin-protein ligase XIAP; assay: small molecules displacing peptide from XIAP – biochemical, IAP family, fluorescence polarization (AID 1018); format: functional
Tumor necrosis factor = Tumor necrosis factor (Homo sapiens, UniProt P01375); assay: analog potency on TNFa NF-kB signaling – cell-based, revised, SAR follow-up (AID 2337); format: functional
[17] = target: Nucleotide-binding oligomerization domain-containing protein 1 (Homo sapiens, UniProt Q9Y239); assay: blockers of NOD1 pathway activity – revised, SAR follow-up (AID 2333); format: functional
HEK293 = assay: cells; settings: Homo sapiens;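 also: cells exposed to compound for 14 hours overnight before viability readout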

T4 sequence (P41143 whole entry): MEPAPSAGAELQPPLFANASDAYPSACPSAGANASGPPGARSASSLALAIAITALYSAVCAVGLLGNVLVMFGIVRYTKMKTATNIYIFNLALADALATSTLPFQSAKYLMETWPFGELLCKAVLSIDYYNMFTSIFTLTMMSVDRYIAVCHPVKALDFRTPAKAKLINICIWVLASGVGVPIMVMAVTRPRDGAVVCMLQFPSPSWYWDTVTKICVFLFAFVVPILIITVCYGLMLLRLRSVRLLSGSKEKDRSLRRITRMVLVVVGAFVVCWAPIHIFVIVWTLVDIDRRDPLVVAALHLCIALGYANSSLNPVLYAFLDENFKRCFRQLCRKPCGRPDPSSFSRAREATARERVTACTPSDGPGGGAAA
T6 sequence (P98170 whole entry): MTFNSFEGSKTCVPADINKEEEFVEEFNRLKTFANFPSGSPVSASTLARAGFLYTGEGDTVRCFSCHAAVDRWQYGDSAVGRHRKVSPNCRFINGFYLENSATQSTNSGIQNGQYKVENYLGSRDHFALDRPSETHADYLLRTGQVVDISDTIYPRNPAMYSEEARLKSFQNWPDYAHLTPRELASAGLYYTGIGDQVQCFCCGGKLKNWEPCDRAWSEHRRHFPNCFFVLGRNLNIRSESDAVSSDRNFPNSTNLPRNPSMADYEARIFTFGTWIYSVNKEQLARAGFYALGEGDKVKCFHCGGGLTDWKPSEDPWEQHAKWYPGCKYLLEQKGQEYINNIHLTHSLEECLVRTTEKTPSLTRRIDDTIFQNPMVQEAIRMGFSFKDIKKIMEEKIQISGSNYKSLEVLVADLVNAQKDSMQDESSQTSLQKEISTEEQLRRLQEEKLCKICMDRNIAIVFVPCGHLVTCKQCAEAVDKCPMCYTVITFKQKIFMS
T3 sequence (P41145 whole entry): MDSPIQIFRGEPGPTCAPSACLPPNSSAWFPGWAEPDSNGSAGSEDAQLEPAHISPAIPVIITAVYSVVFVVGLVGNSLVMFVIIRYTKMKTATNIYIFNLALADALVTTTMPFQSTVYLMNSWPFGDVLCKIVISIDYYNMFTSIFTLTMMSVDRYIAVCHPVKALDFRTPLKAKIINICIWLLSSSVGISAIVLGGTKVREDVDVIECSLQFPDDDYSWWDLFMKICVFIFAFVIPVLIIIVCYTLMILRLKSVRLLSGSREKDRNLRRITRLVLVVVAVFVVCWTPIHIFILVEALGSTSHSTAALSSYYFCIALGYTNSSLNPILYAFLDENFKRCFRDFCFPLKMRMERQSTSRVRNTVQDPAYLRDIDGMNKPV
T2 sequence (Q8VNN2 whole entry): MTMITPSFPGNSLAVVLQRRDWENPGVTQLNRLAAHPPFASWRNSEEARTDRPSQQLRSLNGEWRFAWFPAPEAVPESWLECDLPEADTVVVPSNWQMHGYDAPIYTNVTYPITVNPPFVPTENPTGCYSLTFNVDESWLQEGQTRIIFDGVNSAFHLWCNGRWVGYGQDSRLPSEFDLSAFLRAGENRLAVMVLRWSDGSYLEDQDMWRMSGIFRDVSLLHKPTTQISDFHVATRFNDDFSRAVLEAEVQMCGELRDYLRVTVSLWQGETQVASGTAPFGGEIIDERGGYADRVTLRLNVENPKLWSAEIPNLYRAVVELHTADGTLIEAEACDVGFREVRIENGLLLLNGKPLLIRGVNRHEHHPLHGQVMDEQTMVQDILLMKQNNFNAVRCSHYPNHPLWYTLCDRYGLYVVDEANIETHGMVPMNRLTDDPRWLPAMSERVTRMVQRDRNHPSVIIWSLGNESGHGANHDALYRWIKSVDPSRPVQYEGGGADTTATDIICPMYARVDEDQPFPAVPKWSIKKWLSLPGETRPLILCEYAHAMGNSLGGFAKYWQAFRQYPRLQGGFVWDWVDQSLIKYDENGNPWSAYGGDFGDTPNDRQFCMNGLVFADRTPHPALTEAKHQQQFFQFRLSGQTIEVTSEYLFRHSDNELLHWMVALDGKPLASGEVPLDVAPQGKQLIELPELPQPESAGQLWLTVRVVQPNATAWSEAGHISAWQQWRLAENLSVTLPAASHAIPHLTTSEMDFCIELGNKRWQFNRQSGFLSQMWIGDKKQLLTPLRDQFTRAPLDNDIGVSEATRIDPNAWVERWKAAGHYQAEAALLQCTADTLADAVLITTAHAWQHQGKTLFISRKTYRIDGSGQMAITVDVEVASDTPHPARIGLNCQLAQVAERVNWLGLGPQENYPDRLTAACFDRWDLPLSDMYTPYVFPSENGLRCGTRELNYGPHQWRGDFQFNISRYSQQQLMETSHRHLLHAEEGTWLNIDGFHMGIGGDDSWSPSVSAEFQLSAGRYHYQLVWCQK
Nucleotide-binding oligomerization domain-containing protein 1, sequence (Q9Y239 whole entry, the tested form may be a part): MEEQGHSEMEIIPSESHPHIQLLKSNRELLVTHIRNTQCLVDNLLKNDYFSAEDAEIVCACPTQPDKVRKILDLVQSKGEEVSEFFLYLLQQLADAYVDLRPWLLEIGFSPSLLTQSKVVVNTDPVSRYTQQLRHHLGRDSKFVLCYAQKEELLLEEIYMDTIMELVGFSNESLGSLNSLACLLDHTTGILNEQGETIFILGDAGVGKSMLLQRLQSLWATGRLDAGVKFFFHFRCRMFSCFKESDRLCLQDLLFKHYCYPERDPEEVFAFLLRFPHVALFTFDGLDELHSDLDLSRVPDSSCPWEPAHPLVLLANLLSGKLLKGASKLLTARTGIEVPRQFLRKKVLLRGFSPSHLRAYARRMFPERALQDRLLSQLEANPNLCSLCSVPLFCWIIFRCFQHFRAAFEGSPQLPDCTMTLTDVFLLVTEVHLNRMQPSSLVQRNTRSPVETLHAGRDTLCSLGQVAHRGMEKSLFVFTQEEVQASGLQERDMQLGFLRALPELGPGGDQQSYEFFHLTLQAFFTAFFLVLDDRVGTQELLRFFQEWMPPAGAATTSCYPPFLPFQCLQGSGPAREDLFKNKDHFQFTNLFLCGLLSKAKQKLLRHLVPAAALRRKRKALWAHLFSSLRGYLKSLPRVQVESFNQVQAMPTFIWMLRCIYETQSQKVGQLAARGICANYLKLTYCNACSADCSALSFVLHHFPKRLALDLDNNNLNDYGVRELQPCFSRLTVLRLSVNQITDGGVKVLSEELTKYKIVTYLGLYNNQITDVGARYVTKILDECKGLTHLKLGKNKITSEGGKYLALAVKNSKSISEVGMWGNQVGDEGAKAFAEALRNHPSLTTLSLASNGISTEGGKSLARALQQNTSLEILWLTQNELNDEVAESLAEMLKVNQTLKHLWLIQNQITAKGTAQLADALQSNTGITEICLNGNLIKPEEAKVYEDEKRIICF
Tumor necrosis factor, sequence (P01375 whole entry, the tested form may be a part): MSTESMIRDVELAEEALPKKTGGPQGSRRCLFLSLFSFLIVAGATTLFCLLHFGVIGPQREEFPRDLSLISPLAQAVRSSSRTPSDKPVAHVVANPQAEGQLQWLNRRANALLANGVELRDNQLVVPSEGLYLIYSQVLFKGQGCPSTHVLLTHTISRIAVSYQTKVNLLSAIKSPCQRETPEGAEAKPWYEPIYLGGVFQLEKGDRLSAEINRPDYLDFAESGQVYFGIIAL
Mu-type opioid receptor, sequence (P35372 whole entry): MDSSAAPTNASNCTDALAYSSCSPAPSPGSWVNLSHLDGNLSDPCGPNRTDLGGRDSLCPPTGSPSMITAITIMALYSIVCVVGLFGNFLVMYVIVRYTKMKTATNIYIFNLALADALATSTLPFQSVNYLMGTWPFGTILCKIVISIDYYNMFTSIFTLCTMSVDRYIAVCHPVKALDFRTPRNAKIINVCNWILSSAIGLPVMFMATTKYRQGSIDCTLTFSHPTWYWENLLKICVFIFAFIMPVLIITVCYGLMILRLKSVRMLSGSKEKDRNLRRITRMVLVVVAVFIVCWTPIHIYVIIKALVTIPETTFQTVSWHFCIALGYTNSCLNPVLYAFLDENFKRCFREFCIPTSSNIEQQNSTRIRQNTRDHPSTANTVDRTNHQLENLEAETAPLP

Compound: Cc1ccccc1C(=O)NNC(=S)NC(=O)c1ccc(Cl)cc1Cl
EC50 [1]: 1.75 µM (active)
EC50 [2]: > 160 µM (inactive)
EC50 [3]: 1.33 µM (active)

EC50 [4]: 5.31 µM (active)
EC50 [3]: 9.44 µM (active)
Compound: CCn1c(SCC(=O)c2cc(C)n(CC3CCCO3)c2C)nc2ccccc21 (stereo unspecified)

Compound: Cc1ccc2oc(Nc3nc(O)cc(-c4ccccc4)n3)nc2c1
EC50 (Mu-type opioid receptor): > 32 µM (inactive)
EC50 [5]: 1.62 µM (active)
EC50 (Beta-galactosidase [6]): > 40 µM (inactive)
IC50 [7]: 11.9 µM (active)
EC50 [8]: > 30 µM (not active)
EC50 (Beta-galactosidase [9]): > 31.5 µM (inactive)
EC50 [10]: > 32 µM (inactive)
IC50 [11]: > 32 µM (inactive)
IC50 [12]: > 32 µM
IC50 [13]: 3.99 µM (active)

IC50 [14]: > 100 µM (inactive)
IC50 [15]: > 50 µM (not active)
IC50 [16]: > 100 µM (not active)
Compound: COc1ccc(/C=C(\NC(=O)c2ccccc2Cl)C(=O)NCCCC(=O)O)cc1

Compound: CCOc1ccc(C(=O)Nc2ccc(CN3CCc4ccccc4C3)cc2)cc1
IC50 (Tumor necrosis factor): > 20 µM (inactive)
IC50 [17]: > 20 µM (inactive)
IC50 (HEK293): > 20 µM (inactive)
